Columns and labels:
PKC2β = PKC2β (Homo sapiens, UniProt O00750); assay: Kinase inhibitory profile; assay type: biochemical; conditions: Class II PI3Ks; 10-point concentration assays
MAPK = assay: Kinase inhibitory profile; assay type: biochemical; conditions: Other Clinically-relevant Kinases; 10-point concentration assays
CCRF-CEM = assay: NCI-60 panel cell growth screen; assay type: cell-based, human; conditions: CCRF-CEM (Leukemia)
K-562 = assay: NCI-60 panel cell growth screen; assay type: cell-based, human; conditions: K-562 (Leukemia)
SR = assay: NCI-60 panel cell growth screen; assay type: cell-based, human; conditions: SR (Leukemia)
NCI-H226 = assay: NCI-60 panel cell growth screen; assay type: cell-based, human; conditions: NCI-H226 (NSCLC)
NCI-H23 = assay: NCI-60 panel cell growth screen; assay type: cell-based, human; conditions: NCI-H23 (NSCLC)
NCI-H522 = assay: NCI-60 panel cell growth screen; assay type: cell-based, human; conditions: NCI-H522 (NSCLC)
HCC-2998 = assay: NCI-60 panel cell growth screen; assay type: cell-based, human; conditions: HCC-2998 (Colon cancer)
SF-268 = assay: NCI-60 panel cell growth screen; assay type: cell-based, human; conditions: SF-268 (CNS Cancer)
SNB-19 = assay: NCI-60 panel cell growth screen; assay type: cell-based, human; conditions: SNB-19 (CNS Cancer)
U25 = assay: NCI-60 panel cell growth screen; assay type: cell-based, human; conditions: U25 (CNS Cancer)
[1] = system: Myeloma/ Leukemia/ Lymphoma; assay: NCI-60 panel cell growth screen (Figure 6); assay type: cell-based, human
MM cells [2] = assay: Transwell chemotaxis of CFSE-labeled MM cells toward BMSCs; assay type: cell-based; conditions: counted at 72 h
From the text: BMSCs induce the migration and homing (chemotaxis) of MM cells to BM. […] MM cells were placed in the upper chamber separated from BMSCs in the lower chamber by a semi-permeable membrane. […] It appears that DT97 treatment prevents MM migration, in part, through the reduction of cytokine production.

CXCR12 = assay: CXCL12/SDF-1 alpha ELISA, MM cells co-cultured with BMSCs; assay type: cell-based, human
AKT = assay: Immunoblot of AKT phosphorylation in MM cells; assay type: cell-based; conditions: DT97 500 nm or 1 uM for 48 h
ERK1/2 = assay: Immunoblot of ERK1/2 phosphorylation in MM cells; assay type: cell-based; conditions: DT97 500 nm or 1 uM for 48 h
MM cells [3] = assay: XTT viability, MM cells (DT97 vs idelalisib); assay type: cell-based; conditions: parental and drug-resistant MM cells; 1 uM; 72 h; XTT assay
Procedure: Values represent the average of triplicate measurements. […] Values represent the average of triplicate measurements. […] Values represent the average of triplicate measurements.
Cells were plated, treated as indicated for 72 h and 2, 3-bis-(2-methoxy-4-nitro-5-sulfophenyl)-2H-tetrazolium-5-carboxanilide) added (Sigma-Aldrich) after activation with N-methyl dibenzopyrazine methyl sulfate (Sigma-Aldrich). Absorbance was measured and the effect on myeloma viability determined as previously described. Assays were performed in triplicate and the mean and standard deviation determined. Relative cell viability (mean ± SD) was calculated compared to readings from untreated cells.

p110-α = p110-α (Homo sapiens, UniProt P42336); assay: Kinase inhibitory profile / PIP3 production; parameters: Inhibitory profile (kinase inhibition): key to the marks not given beside the values
p110-β = p110-β (Homo sapiens, UniProt P42338); assay: Kinase inhibitory profile / PIP3 production
Procedure: (§1) To directly assess PI3K activity, PI3K was isolated by immunoprecipitation using an antibody to the p85 adapter subunit and the ability of the co-precipitated catalytic p110 subunit to convert PIP2 to PIP3 in a kinase reaction assessed by measuring the amount of PIP3 generated using a competitive ELISA [40, 41]. […] Lysates were centrifuged at 13,000 × rpm for 10 min and supernatants stored at −80°C. Frozen lysates were thawed and PI3K immunoprecipitated with 5 μl anti-PI3K p85 (Cell Signaling Technology, Danvers, MA) for 1 h at 4°C, followed by the addition of 60 μl of a 50% slurry of Protein A agarose beads for 1 h at 4°C. The immunoprecipitate was collected by centrifugation at 13,000 × rpm for 10 sec, washed 3 times in buffer A + 1% NP40, thrice with 0.1 M Tris-HCl, pH 7.4, 5 mM LiCl, 0.1 mM Na orthovanadate and twice with 10 mM Tris-HCl, pH 7.4, 150 mM NaCl, 5 mM ethylenediaminetetraacetic acid (EDTA), 0.1 mM Na orthovanadate. […] Reactions were incubated for 3 h at 37°C with 40 pmol PIP2 (Echelon Biosciences, Salt Lake City, UT). Reactions were stopped with EDTA (5 mM) and centrifuged at 13,000 × rpm at 4°C. Supernatants were transferred to a microtitre plate for a competitive ELISA (Echelon Biosciences) to quantify PIP3 generated. […] Absorbance was measured (450 nm) and PIP3 quantified using a standard curve generated with experimental samples and plotted on a log scale.

p110-γ = p110-γ (Homo sapiens, UniProt P48736); assay: Kinase inhibitory profile / PIP3 production
Procedure: as §1

p110-δ = p110-δ (Homo sapiens, UniProt O00329); assay: Kinase inhibitory profile / PIP3 production; parameters: Inhibitory profile (kinase inhibition): key to the marks not given beside the values
[4] = read-out: LC50 (the source's name)
[5] = Class I PI3Ks, 10-point concentration assays

p110-α, sequence (P42336 whole entry): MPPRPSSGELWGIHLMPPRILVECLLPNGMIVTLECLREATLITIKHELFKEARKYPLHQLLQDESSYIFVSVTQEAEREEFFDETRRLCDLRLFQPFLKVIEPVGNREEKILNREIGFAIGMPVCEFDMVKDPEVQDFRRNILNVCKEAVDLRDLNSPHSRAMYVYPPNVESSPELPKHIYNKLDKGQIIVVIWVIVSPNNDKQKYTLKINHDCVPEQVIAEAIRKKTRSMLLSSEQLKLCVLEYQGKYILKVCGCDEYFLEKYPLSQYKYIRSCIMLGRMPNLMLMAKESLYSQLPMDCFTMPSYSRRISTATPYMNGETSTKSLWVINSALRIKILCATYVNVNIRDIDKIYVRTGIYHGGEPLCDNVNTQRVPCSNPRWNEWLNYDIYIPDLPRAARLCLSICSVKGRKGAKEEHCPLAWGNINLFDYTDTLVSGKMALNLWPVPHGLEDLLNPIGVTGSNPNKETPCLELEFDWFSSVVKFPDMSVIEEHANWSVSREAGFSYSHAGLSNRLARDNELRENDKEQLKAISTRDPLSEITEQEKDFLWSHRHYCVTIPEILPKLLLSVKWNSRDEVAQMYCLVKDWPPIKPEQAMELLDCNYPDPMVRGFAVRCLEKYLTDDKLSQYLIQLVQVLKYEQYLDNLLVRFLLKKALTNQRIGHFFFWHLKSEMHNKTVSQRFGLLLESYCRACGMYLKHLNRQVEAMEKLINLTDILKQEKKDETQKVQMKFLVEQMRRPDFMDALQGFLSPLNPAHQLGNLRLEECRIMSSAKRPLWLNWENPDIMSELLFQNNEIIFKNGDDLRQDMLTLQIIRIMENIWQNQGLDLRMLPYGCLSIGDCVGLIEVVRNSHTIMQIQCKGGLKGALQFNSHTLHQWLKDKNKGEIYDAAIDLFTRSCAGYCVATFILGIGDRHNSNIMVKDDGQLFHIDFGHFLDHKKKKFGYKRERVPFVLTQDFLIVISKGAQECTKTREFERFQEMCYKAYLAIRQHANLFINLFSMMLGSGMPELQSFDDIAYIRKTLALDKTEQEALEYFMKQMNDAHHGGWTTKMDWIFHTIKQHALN
p110-α, sequence (P27986 whole entry partner): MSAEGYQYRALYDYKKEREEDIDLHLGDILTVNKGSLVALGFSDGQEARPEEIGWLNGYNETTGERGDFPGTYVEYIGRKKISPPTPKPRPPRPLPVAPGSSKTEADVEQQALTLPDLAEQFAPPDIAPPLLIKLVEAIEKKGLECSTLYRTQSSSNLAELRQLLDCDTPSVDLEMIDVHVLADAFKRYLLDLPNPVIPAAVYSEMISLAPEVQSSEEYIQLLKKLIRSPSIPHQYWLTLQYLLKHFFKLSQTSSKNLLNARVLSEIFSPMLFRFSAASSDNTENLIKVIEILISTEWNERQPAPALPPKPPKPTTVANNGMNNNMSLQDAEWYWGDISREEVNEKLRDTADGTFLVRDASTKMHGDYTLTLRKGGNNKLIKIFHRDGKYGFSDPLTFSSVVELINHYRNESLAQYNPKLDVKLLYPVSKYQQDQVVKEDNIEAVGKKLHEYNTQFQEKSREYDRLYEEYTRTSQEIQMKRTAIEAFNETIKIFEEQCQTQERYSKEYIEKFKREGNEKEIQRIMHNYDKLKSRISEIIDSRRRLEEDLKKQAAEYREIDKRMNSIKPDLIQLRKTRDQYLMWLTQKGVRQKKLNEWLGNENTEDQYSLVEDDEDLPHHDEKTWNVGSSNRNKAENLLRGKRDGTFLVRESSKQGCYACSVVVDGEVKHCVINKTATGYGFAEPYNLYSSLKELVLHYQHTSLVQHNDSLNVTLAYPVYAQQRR
p110-β, sequence (P42338 whole entry): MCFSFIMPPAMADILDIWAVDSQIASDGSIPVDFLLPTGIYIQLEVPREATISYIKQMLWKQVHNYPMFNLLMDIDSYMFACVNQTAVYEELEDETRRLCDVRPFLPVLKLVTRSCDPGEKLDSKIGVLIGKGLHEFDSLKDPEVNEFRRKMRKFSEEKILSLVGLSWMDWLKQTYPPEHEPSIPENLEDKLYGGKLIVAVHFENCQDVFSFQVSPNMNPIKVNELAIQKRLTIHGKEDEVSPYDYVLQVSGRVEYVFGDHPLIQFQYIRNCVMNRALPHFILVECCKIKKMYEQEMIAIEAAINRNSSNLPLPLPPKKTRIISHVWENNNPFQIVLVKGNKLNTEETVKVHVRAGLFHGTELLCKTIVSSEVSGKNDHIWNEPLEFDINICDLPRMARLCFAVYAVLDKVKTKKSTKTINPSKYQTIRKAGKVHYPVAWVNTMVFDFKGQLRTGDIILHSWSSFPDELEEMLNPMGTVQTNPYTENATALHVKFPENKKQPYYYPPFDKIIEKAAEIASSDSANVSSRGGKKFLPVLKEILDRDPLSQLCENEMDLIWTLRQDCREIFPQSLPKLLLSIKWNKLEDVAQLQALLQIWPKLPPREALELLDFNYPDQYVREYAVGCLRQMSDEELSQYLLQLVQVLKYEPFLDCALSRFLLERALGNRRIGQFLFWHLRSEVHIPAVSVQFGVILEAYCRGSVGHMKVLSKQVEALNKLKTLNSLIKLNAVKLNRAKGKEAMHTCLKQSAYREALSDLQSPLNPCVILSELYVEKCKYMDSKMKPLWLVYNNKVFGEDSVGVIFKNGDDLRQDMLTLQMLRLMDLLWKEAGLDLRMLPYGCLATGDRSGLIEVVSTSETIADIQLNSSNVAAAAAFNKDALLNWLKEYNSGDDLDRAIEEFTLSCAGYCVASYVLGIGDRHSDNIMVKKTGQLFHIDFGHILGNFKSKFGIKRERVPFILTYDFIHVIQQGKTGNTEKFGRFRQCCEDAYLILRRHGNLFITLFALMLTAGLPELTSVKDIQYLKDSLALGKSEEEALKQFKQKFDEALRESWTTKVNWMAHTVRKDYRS
p110-β, sequence (P27986 whole entry partner): as the sequence (P27986 whole entry partner) above
p110-δ, sequence (O00329 whole entry): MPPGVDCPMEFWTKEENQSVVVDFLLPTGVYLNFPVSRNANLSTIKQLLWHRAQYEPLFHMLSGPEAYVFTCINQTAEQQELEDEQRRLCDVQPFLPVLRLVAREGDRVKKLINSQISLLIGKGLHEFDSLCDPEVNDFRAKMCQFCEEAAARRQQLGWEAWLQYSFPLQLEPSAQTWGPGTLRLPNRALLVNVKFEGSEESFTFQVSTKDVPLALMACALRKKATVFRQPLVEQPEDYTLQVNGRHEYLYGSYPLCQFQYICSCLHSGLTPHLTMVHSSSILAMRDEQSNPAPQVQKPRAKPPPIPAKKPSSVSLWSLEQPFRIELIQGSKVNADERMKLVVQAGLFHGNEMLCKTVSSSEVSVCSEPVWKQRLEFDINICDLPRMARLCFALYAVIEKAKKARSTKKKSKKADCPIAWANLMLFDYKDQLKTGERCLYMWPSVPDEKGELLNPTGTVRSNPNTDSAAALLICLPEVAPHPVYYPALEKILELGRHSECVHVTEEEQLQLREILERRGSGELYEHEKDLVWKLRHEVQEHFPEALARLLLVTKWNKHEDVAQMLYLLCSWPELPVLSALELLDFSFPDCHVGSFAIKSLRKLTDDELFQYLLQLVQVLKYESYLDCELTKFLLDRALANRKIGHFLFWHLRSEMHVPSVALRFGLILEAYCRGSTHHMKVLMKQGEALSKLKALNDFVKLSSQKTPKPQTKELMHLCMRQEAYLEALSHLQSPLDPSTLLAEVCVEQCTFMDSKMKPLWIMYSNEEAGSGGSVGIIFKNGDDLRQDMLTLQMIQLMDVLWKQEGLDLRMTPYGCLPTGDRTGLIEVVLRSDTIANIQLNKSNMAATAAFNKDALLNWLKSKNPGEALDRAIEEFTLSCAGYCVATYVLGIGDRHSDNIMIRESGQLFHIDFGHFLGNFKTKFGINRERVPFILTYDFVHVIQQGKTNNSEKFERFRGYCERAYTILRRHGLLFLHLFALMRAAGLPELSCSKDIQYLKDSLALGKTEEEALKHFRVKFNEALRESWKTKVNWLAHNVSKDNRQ
p110-δ, sequence (P27986 whole entry partner): as the sequence (P27986 whole entry partner) above
p110-γ, sequence (P48736 whole entry): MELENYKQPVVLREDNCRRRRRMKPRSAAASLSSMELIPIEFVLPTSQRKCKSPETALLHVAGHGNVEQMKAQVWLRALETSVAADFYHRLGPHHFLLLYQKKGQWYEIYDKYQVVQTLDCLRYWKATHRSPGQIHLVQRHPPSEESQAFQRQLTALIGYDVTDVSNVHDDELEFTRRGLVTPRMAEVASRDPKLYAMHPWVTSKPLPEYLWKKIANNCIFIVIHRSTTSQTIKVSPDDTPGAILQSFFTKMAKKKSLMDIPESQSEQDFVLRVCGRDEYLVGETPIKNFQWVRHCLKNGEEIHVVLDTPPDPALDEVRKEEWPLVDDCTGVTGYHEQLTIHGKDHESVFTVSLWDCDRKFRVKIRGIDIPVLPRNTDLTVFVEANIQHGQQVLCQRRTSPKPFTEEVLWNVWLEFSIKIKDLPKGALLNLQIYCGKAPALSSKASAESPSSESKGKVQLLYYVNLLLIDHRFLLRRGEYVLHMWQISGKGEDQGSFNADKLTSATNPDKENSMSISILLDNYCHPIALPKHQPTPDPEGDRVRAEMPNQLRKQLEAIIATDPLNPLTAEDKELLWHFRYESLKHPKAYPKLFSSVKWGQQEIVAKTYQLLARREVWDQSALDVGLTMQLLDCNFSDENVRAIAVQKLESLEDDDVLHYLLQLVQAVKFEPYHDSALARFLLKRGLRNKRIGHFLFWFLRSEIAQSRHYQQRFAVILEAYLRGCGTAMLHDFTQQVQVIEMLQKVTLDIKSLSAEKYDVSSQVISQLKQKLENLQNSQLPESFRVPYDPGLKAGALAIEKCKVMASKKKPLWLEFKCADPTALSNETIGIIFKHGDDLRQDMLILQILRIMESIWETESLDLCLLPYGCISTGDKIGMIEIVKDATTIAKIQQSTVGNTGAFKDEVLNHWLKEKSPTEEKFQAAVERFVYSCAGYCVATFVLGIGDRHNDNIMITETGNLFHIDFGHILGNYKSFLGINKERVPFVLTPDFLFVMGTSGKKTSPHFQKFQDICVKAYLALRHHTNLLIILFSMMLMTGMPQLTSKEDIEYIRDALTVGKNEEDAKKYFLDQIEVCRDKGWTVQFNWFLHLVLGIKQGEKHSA

## N-[4-hydroxy-3-(8-quinolinylthio)-1-naphthyl]benzenesulfonamide [DT97]
PKC2β
  Inhibitory profile (kinase inhibition): +
MAPK
  Inhibitory profile (kinase inhibition): +
CCRF-CEM
  GI50: 426 nM
  TGI: 1.60E-5
CCRF-CEM; log concentration −4.0
  Percent Growth: −7%
CCRF-CEM; log concentration −5.0
  Percent Growth: 2%
CCRF-CEM; log concentration −6.0
  Percent Growth: 17%
CCRF-CEM; log concentration −7.0
  Percent Growth: 106%
CCRF-CEM; log concentration −8.0
  Percent Growth: 104%
CCRF-CEM; [4]
  CC50: > 100000 nM
K-562
  GI50: 929 nM
  TGI: 1.65E-5
K-562; log concentration −4.0
  Percent Growth: −12%
K-562; log concentration −5.0
  Percent Growth: 3%
K-562; log concentration −6.0
  Percent Growth: 48%
K-562; log concentration −7.0
  Percent Growth: 111%
K-562; log concentration −8.0
  Percent Growth: 108%
K-562; [4]
  CC50: > 100000 nM
SR
  GI50: 426 nM
  TGI: 1.72E-5
SR; log concentration −4.0
  Percent Growth: −15%
SR; log concentration −5.0
  Percent Growth: 5%
SR; log concentration −6.0
  Percent Growth: 13%
SR; log concentration −7.0
  Percent Growth: 113%
SR; log concentration −8.0
  Percent Growth: 109%
SR; [4]
  CC50: > 100000 nM
NCI-H226
  GI50: 2450 nM
  TGI: 2.54E-5
NCI-H226; log concentration −4.0
  Percent Growth: −40%
NCI-H226; log concentration −5.0
  Percent Growth: 27%
NCI-H226; log concentration −6.0
  Percent Growth: 65%
NCI-H226; log concentration −7.0
  Percent Growth: 94%
NCI-H226; log concentration −8.0
  Percent Growth: 92%
NCI-H23
  GI50: 1930 nM
  TGI: 1.28E-5
NCI-H23; log concentration −4.0
  Percent Growth: −58%
NCI-H23; log concentration −5.0
  Percent Growth: 7%
NCI-H23; log concentration −6.0
  Percent Growth: 67%
NCI-H23; log concentration −7.0
  Percent Growth: 102%
NCI-H23; log concentration −8.0
  Percent Growth: 98%
NCI-H23; [4]
  CC50: 75900 nM
NCI-H522
  GI50: 2120 nM
  TGI: 8.17E-6
NCI-H522; log concentration −4.0
  Percent Growth: −48%
NCI-H522; log concentration −5.0
  Percent Growth: −7%
NCI-H522; log concentration −6.0
  Percent Growth: 68%
NCI-H522; log concentration −7.0
  Percent Growth: 95%
NCI-H522; log concentration −8.0
  Percent Growth: 95%
HCC-2998
  GI50: 4770 nM
  TGI: 1.91E-5
HCC-2998; log concentration −4.0
  Percent Growth: −82%
HCC-2998; log concentration −5.0
  Percent Growth: 32%
HCC-2998; log concentration −6.0
  Percent Growth: 88%
HCC-2998; log concentration −7.0
  Percent Growth: 106%
HCC-2998; log concentration −8.0
  Percent Growth: 105%
HCC-2998; [4]
  CC50: 52400 nM
SF-268
  GI50: 1480 nM
  TGI: 1.28E-5
SF-268; log concentration −4.0
  Percent Growth: −68%
SF-268; log concentration −5.0
  Percent Growth: 8%
SF-268; log concentration −6.0
  Percent Growth: 59%
SF-268; log concentration −7.0
  Percent Growth: 100%
SF-268; log concentration −8.0
  Percent Growth: 98%
SF-268; [4]
  CC50: 57700 nM
SNB-19
  GI50: 1980 nM
  TGI: 2.14E-5
SNB-19; log concentration −4.0
  Percent Growth: −59%
SNB-19; log concentration −5.0
  Percent Growth: 29%
SNB-19; log concentration −6.0
  Percent Growth: 59%
SNB-19; log concentration −7.0
  Percent Growth: 94%
SNB-19; log concentration −8.0
  Percent Growth: 95%
SNB-19; [4]
  CC50: 78300 nM
U25
  GI50: 780 nM
  TGI: 2.42E-5
U25; log concentration −4.0
  Percent Growth: −13%
U25; log concentration −5.0
  Percent Growth: 8%
U25; log concentration −6.0
  Percent Growth: 43%
U25; log concentration −7.0
  Percent Growth: 107%
U25; log concentration −8.0
  Percent Growth: 103%
U25; [4]
  CC50: > 100000 nM
[1]
  IC50: ~450 nM
MM cells [2]
  migration of MM cells into the lower chambers with BMSCs: reduced the migration
CXCR12
  production of CXCR12: induction was inhibited
AKT
  phosphorylation of AKT at Ser308/Thr473: reduced the phosphorylation
ERK1/2
  phosphorylation of ERK1/2 at Thre202/Tyr-204: reduced the phosphorylation
MM cells [3]
  viability: more potently than idelalisib
p110-α; [5]
  Inhibitory profile (kinase inhibition): ++
p110-α; p110-α isoform, Figure 4B
  production of PIP3 (dose-dependent effect): weaker activity
p110-β; [5]
  Inhibitory profile (kinase inhibition): none
p110-β; p110-β isoform, Figure 4B
  production of PIP3 (dose-dependent effect): no effect
p110-γ; [5]
  Inhibitory profile (kinase inhibition): none
p110-γ; p110-γ isoform, Figure 4B
  production of PIP3 (dose-dependent effect): no effect
p110-δ; [5]
  Inhibitory profile (kinase inhibition): +++
p110-δ; p110-δ isoform, Figure 4B
  production of PIP3 (dose-dependent effect): most potently
